Where two headings read alike, the source gives them in different places.
What was measured:
Assay type in all cases: cell-based
[1] = test system: NL43-derived HIV-1 carrying the GFP gene; details: p24 ELISA after 4 days; for Actually measured virus inhibitory value (%): alone, MT4 cells
Method: MT4 cells (a type of T cell line) were cultured in RPMI supplemented with 10% FBS and 10% antibiotics (penicillin and streptomycin). The cells were subcultured every 2 days in a humidified incubator at 37° C. and 5% CO2 for maintenance.
All viruses used for infection are NL43-derived HIV-1 carrying the GFP gene. The viral gene is recombined with the GFP gene, so that an expression rate of GFP may represent a level of viral infection. In order to identify antiviral efficacy, MT4 cells, which are a human-derived T cell line, were used. The MT4 cells were inoculated into 48-well plates at a density of 1×10^5 cells/well and infected with HIV-1 in an amount corresponding to 0.5 ng of HIV-1 p24. Treatment with mixtures to be tested for efficacy was performed simultaneously with the infection. The mixtures were prepared by mixing AVI-CO-004 with AZT, 3TC, Tenofovir, or FTC, respectively. […] Virus supernatant was collected and cell residues were removed. Then, analysis was performed. The viral production was quantified by p24 ELISA assay.
Specifically, 100,000 MT4 cells were respectively inoculated into 48-well plates and infected with HIV-1 in an amount corresponding to 0.5 ng of HIV-1 p24. Treatment with AVI-CO-004 was performed at indicated concentrations. After 4 days, an amount of viruses produced was quantified by p24 ELISA assay.
(§1) In the present experiment, antiviral efficacy of a mixture of AVI-CO-004 and AZT was identified. First, 100,000 MT4 cells were respectively inoculated into 48-well plates and infected with HIV-1 in an amount corresponding to 0.5 ng of HIV-1 p24. Treatment with a mixture of AVI-CO-004 and AZT was performed at indicated concentrations. After 4 days, an amount of viruses produced was quantified by p24 ELISA assay.
as §1, with “3TC” for “AZT”
as §1, with “TFV” for “AZT”
as §1, with “FTC” for “AZT”

[2] = test system: NL43-derived HIV-1 carrying the GFP gene; details: alone, MT4 cells, p24 ELISA 3 days after infection
Method: Specifically, MT4 cells were inoculated at 1×10^5 cells into 48-well plates and infected with HIV-1 in an amount corresponding to 1 ng of p24. All viruses used for the infection are NL43-derived HIV-1 carrying the GFP gene. Together with the infection, the cells were treated with 0.5 μM, 1 μM, 2.5 μM, or 5 μM of AVI-CO-004 alone. Three days after the infection, a level of viral proliferation was identified by GFP expression using a fluorescence microscope (A of FIG. 6). Virus supernatant was collected and cell residues were removed; and HIV-1 P24 antigen ELISA assay was performed to identify a level of viral production (B of FIG. 6).
First, MT4 cells were inoculated at 1×10^5 cells into 48-well plates and infected with HIV-1 in an amount corresponding to 1 ng of p24. Together with the infection, the cells were treated with AVI-CO-004 at 0.5 μM and 1 μM in combination with 1 nM of AZT (zidovudine) and 0.5 nM of 3TC (lamivudine) fixed as basal therapeutic agents. Three days after the infection, a level of viral proliferation was identified by GFP expression using a fluorescence microscope (A of FIG. 7). Virus supernatant was collected and cell residues were removed; and HIV-1 P24 antigen ELISA assay was performed to identify a level of viral production (B of FIG. 7).
First, MT4 cells were inoculated at 1×10^5 cells into 48-well plates and infected with HIV-1 in an amount corresponding to 1 ng of p24. Together with the infection, the cells were treated with AVI-CO-004 at 0.5 μM, 1 μM, 2.5 μM, and 5 μM in combination with 0.25 μM of TFV and 0.2 μM of FTC fixed as basal therapeutic agents. Three days after the infection, a level of viral proliferation was identified by GFP expression using a fluorescence microscope (A of FIG. 8). Virus supernatant was collected and cell residues were removed; and HIV-1 P24 antigen ELISA assay was performed to identify a level of viral production (B of FIG. 8).

[3] = test system: NL43-derived HIV-1 carrying the GFP gene; assay: Reinfectivity of viral particles produced after treatment: healthy MT4 cells reinfected (2.5 ng p24), GFP-positive cells counted by FACS after 48 hours; details: for Decreased reinfectivity (%): alone, reinfection of MT4 cells, FACS
Method: In order to identify reinfectivity of viruses produced after treatment with AVI-CO-004 alone, healthy T cells inoculated at 1×10^5 cells into 48-well plates were infected with the same amount (2.5 ng in p24) of purified viral particles produced in infection assay in Example 2. After 48 hours, a level of reinfectivity of the viral particles was identified by GFP expression using a fluorescence microscope. For quantification, GFP-positive cells re-infected with the viruses were counted using a fluorescence activated cell sorter (FACS) and indicated (A of FIG. 9), and the results were graphically represented (B of FIG. 9).
In order to compare reinfectivity of the viruses produced after treatment with AVI-CO-004 alone and after combined treatment with AVI-CO-004/AZT/3TC or AVI-CO-004/TFV/FTC, the purified viral particles produced after the combined treatment in Example 2 and a control which had not been treated with an inhibitor were quantified at the same amount (2.5 ng of p24), and used to reinfect healthy T cells.
First, healthy MT4 cells were inoculated at 1×10^5 cells into 48-well plates and infected with the same amount (2.5 ng in p24) of purified viral particles produced in infection assay in Example 2. After 48 hours, a level of reinfectivity of the viruses was identified by GFP expression using a fluorescence microscope. For quantification, GFP-positive cells re-infected with the viruses were counted using a fluorescence activated cell sorter (FACS) and indicated, and the results were graphically represented (FIGS. 10 and 11).

Compound: Nc1ccn([C@@H]2CS[C@H](CO)O2)c(=O)n1 [3TC, 2′-3′-dideoxy-3′-thiacytidine]
- Actually measured virus inhibitory value (%) ([1]; amount used 1 nM): 25%

Compound: O=C(O)CCN1C(=O)/C(=C/c2ccc(-c3ccc(Cl)cc3)o2)SC1=S [AVI-CO-004, 3-{5-[5-(4-chloro-phenyl)-furan-2-ylmethylene]-4-oxo-2-thioxo-thiazolidin-3-yl}-propionic acid]
- Actually measured virus inhibitory value (%) ([2]; amount used 0.5 μM): 14.4%
- Actually measured virus inhibitory value (%) ([2]; amount used 1 μM): 44%
- Actually measured virus inhibitory value (%) ([2]; amount used 2.5 μM): 61.2%
- Actually measured virus inhibitory value (%) ([2]; amount used 5 μM): 76.3%
- Actually measured virus inhibitory value (%) ([1]; amount used 2.5 μM): 12%
- Actually measured virus inhibitory value (%) ([1]; amount used 5 μM): 40%
- antiviral effect (amount of viruses produced) ([1]; treatment alone at increasing concentrations, p<0.05): concentration-dependent antiviral effect
- reinfectivity of viruses produced after treatment, compared with a control ([3]; treatment alone, reinfection of healthy cells): significantly decreased reinfectivity
- Decreased reinfectivity (%) ([3]; viruses produced under 0.5 μM): 35.8%
- Decreased reinfectivity (%) ([3]; viruses produced under 1 μM): 65.3%
- Decreased reinfectivity (%) ([3]; viruses produced under 2.5 μM): 97.5%
- Decreased reinfectivity (%) ([3]; viruses produced under 5 μM): 97.5%

Compound: Cc1cn([C@H]2C[C@H](N=[N+]=[N-])[C@@H](CO)O2)c(=O)[nH]c1=O [AZT, 3′-azido-3′-deoxythymidine]
- Actually measured virus inhibitory value (%) ([1]; amount used 1 nM): 9%

Compound: Nc1nc(=O)n([C@@H]2CS[C@H](CO)O2)cc1F [FTC]
- Actually measured virus inhibitory value (%) ([1]; amount used 5 nM): 19%

Compound: C[C@H](Cn1cnc2c(N)ncnc21)OCP(=O)(O)O [TFV, tenofovir]
- Actually measured virus inhibitory value (%) ([1]; amount used 0.25 μM): 30%
